{"source": "paper PMC7979765", "about": "“trans-Translation inhibitors bind to a novel site on the ribosome and clear Neisseria gonorrhoeae in vivo” (Nature Communications, 2021)", "key": {"[1]": {"test": "Mammalian cell cytotoxicity (CC50)", "format": "cell-based, human", "conditions": "human, HeLa cells (ATCC CCL-2)", "experimental": "(§1) The half maximal cytotoxic concentration (CC50) of each compound against HeLa cells (ATCC CCL-2) was measured as previously described. […] The mean values for each biological replicate were averaged, and the CC50 was determined using a 4-parameter nonlinear curve fitting algorithm (GraphPad Prism). The average of the CC50s from two biological replicates was calculated and reported."}, "HeLa cells": {"tested_on": "HeLa cells", "test": "Mammalian cell cytotoxicity (CC50)", "format": "cell-based, human", "conditions": "listed as MBX-3535; for NORMALIZED DATA (Fraction DMSO Control): HeLa, replicates", "experimental": "as §1"}, "Klebsiella pneumoniae": {"tested_on": "Klebsiella pneumoniae", "test": "MIC, microbroth dilution", "format": "cell-based"}, "Staphylococcus aureus": {"tested_on": "Staphylococcus aureus", "test": "MIC, microbroth dilution", "format": "cell-based"}, "[2]": {"conditions": "HeLa cytotoxicity, one value per replicate"}}, "note": "Where “and” joins values, the source holds several entries; their conditions need not be identical. Identical values can stand only once. Like-named read-outs stand apart in the source and are kept apart here."}
{"compound": "O=C(Nc1nnc(-c2ccc(F)cc2)o1)c1ccc(Cl)cc1", "note": "[KKL-35, 4-chloro-N-(5-(4-fluorophenyl)-1,3,4-oxadiazol-2-yl)benzamide]", "values": [{"measurement": "CC50", "setting": "[1]; [2]", "result": 30.5, "unit": "µM"}, {"measurement": "CC50", "setting": "[1]; half-maximal cytotoxic concentration against HeLa cells", "result": "> 100", "unit": "µM"}, {"measurement": "CC50", "setting": "HeLa cells; [2]", "result": "30.6 µM and 26 µM and 22 µM and 29.1 µM and 34.1 µM"}, {"measurement": "NORMALIZED DATA (Fraction DMSO Control)", "setting": "HeLa cells; [CMPD] 0.78125 µM", "result": "0.9983 Fraction DMSO Control and 0.9009 Fraction DMSO Control and 0.8841 Fraction DMSO Control and 1.049 Fraction DMSO Control and 0.992 Fraction DMSO Control and 0.9968 Fraction DMSO Control"}, {"measurement": "NORMALIZED DATA (Fraction DMSO Control)", "setting": "HeLa cells; [CMPD] 1.5625 µM", "result": "0.9916 Fraction DMSO Control and 0.9029 Fraction DMSO Control and 0.888 Fraction DMSO Control and 1.05 Fraction DMSO Control and 0.9984 Fraction DMSO Control and 0.9932 Fraction DMSO Control"}, {"measurement": "NORMALIZED DATA (Fraction DMSO Control)", "setting": "HeLa cells; [CMPD] 3.125 µM", "result": "0.9963 Fraction DMSO Control and 0.9267 Fraction DMSO Control and 0.8661 Fraction DMSO Control and 1.071 Fraction DMSO Control and 1.023 Fraction DMSO Control and 1.002 Fraction DMSO Control"}, {"measurement": "NORMALIZED DATA (Fraction DMSO Control)", "setting": "HeLa cells; [CMPD] 6.25 µM", "result": "1.002 Fraction DMSO Control and 0.9334 Fraction DMSO Control and 0.856 Fraction DMSO Control and 1.09 Fraction DMSO Control and 1.008 Fraction DMSO Control and 1.022 Fraction DMSO Control"}, {"measurement": "NORMALIZED DATA (Fraction DMSO Control)", "setting": "HeLa cells; [CMPD] 12.5 µM", "result": "0.9694 Fraction DMSO Control and 0.9248 Fraction DMSO Control and 0.8736 Fraction DMSO Control and 1.069 Fraction DMSO Control and 1.012 Fraction DMSO Control and 1.014 Fraction DMSO Control"}, {"measurement": "NORMALIZED DATA (Fraction DMSO Control)", "setting": "HeLa cells; [CMPD] 25 µM", "result": "0.8994 Fraction DMSO Control and 0.8509 Fraction DMSO Control and 0.795 Fraction DMSO Control and 0.4926 Fraction DMSO Control and 0.6416 Fraction DMSO Control and 0.799 Fraction DMSO Control"}, {"measurement": "NORMALIZED DATA (Fraction DMSO Control)", "setting": "HeLa cells; [CMPD] 50 µM", "result": "0.6292 Fraction DMSO Control and 0.6178 Fraction DMSO Control and 0.5987 Fraction DMSO Control and 0.3592 Fraction DMSO Control and 0.3855 Fraction DMSO Control and 0.3659 Fraction DMSO Control"}, {"measurement": "NORMALIZED DATA (Fraction DMSO Control)", "setting": "HeLa cells; [CMPD] 100 µM", "result": "0.6116 Fraction DMSO Control and 0.6041 Fraction DMSO Control and 0.6139 Fraction DMSO Control and 0.191 Fraction DMSO Control and 0.1882 Fraction DMSO Control and 0.2089 Fraction DMSO Control"}, {"measurement": "MIC", "setting": "Klebsiella pneumoniae; Klebsiella pneumoniae ATCC 13883, replicates", "result": "≥32", "unit": "µg/mL"}, {"measurement": "MIC", "setting": "Klebsiella pneumoniae; Klebsiella pneumoniae, ATCC13883, strain ATCC 13883, read-out: MIC", "result": "≥ 32", "unit": "µg/mL"}, {"measurement": "MIC", "setting": "Staphylococcus aureus; Staphylococcus aureus ATCC 25923, replicates", "result": 1, "unit": "µg/mL"}, {"measurement": "MIC", "setting": "Staphylococcus aureus; Staphylococcus aureus ATCC 35556, replicates", "result": 1, "unit": "µg/mL"}, {"measurement": "MIC", "setting": "Staphylococcus aureus; Staphylococcus aureus BAA-1717, replicates", "result": 1, "unit": "µg/mL"}, {"measurement": "MIC", "setting": "Staphylococcus aureus; Staphylococcus aureus MRSA-1094, replicates", "result": 1, "unit": "µg/mL"}, {"measurement": "MIC", "setting": "Staphylococcus aureus; Staphylococcus aureus MRSA-1234547263, replicates", "result": 1, "unit": "µg/mL"}, {"measurement": "MIC", "setting": "Staphylococcus aureus; Staphylococcus aureus MSSA, replicates", "result": 1, "unit": "µg/mL"}, {"measurement": "MIC", "setting": "Staphylococcus aureus; Staphylococcus aureus N315, NRS-70, replicates", "result": 1, "unit": "µg/mL"}, {"measurement": "MIC", "setting": "Staphylococcus aureus; Staphylococcus aureus NRS-77, replicates", "result": 1, "unit": "µg/mL"}, {"measurement": "MIC", "setting": "Staphylococcus aureus; Staphylococcus aureus THC1516, replicates", "result": "1 µg/ml (4×) and 0.5 µg/ml"}, {"measurement": "MIC", "setting": "Staphylococcus aureus; Staphylococcus aureus, ATCC25923, Staphylococcus aureus ATCC 25923, replicates, read-out: MIC", "result": 1, "unit": "µg/mL"}, {"measurement": "MIC", "setting": "Staphylococcus aureus; Staphylococcus aureus, ATCC25923, strain ATCC 25923, read-out: MIC", "result": 1, "unit": "µg/mL"}, {"measurement": "MIC", "setting": "Staphylococcus aureus; Staphylococcus aureus, ATCC35556, Staphylococcus aureus ATCC 35556, replicates, read-out: MIC", "result": 1, "unit": "µg/mL"}, {"measurement": "MIC", "setting": "Staphylococcus aureus; Staphylococcus aureus, ATCC35556, strain ATCC 35556, read-out: MIC", "result": 1, "unit": "µg/mL"}, {"measurement": "MIC", "setting": "Staphylococcus aureus; Staphylococcus aureus, BAA1717, Staphylococcus aureus BAA-1717, replicates, read-out: MIC", "result": 1, "unit": "µg/mL"}, {"measurement": "MIC", "setting": "Staphylococcus aureus; Staphylococcus aureus, BAA-1717 / MRSA, strain BAA-1717, MRSA, read-out: MIC", "result": 1, "unit": "µg/mL"}, {"measurement": "MIC", "setting": "Staphylococcus aureus; Staphylococcus aureus, MRSA / NRS 70, strain N315, NRS-70, MRSA, read-out: MIC", "result": 1, "unit": "µg/mL"}, {"measurement": "MIC", "setting": "Staphylococcus aureus; Staphylococcus aureus, MRSA, Staphylococcus aureus MRSA-1094, replicates, read-out: MIC", "result": 1, "unit": "µg/mL"}, {"measurement": "MIC", "setting": "Staphylococcus aureus; Staphylococcus aureus, MRSA, Staphylococcus aureus MRSA-1234547263, replicates, read-out: MIC", "result": 1, "unit": "µg/mL"}, {"measurement": "MIC", "setting": "Staphylococcus aureus; Staphylococcus aureus, MRSA, strain MRSA-1094, MRSA, read-out: MIC", "result": 1, "unit": "µg/mL"}, {"measurement": "MIC", "setting": "Staphylococcus aureus; Staphylococcus aureus, MRSA, strain MRSA-1234547263, MRSA, read-out: MIC", "result": 1, "unit": "µg/mL"}, {"measurement": "MIC", "setting": "Staphylococcus aureus; Staphylococcus aureus, MRSA, strain THC1516, MRSA, read-out: MIC", "result": 0.9, "unit": "µg/mL"}, {"measurement": "MIC", "setting": "Staphylococcus aureus; Staphylococcus aureus, MSSA, Staphylococcus aureus MSSA, replicates, read-out: MIC", "result": 1, "unit": "µg/mL"}, {"measurement": "MIC", "setting": "Staphylococcus aureus; Staphylococcus aureus, MSSA, strain MSSA, read-out: MIC", "result": 1, "unit": "µg/mL"}, {"measurement": "MIC", "setting": "Staphylococcus aureus; Staphylococcus aureus, NRS70, Staphylococcus aureus N315, NRS-70, replicates, read-out: MIC", "result": 1, "unit": "µg/mL"}, {"measurement": "MIC", "setting": "Staphylococcus aureus; Staphylococcus aureus, NRS77, Staphylococcus aureus NRS-77, replicates, read-out: MIC", "result": 1, "unit": "µg/mL"}, {"measurement": "MIC", "setting": "Staphylococcus aureus; Staphylococcus aureus, NRS77, strain NRS-77, read-out: MIC", "result": 1, "unit": "µg/mL"}, {"measurement": "MIC", "setting": "Staphylococcus aureus; Staphylococcus aureus, Staphylococcus aureus THC1516, replicates, read-out: MIC", "result": 1, "unit": "µg/mL"}]}
